For 1 compound, remaining binding and GI50 results are on record in publication PMC5216742, “Discovery and characterization of a novel potent type II native and mutant BCR-ABL inhibitor (CHMFL-074) for Chronic Myeloid Leukemia (CML)” (Oncotarget, 2016).

As a reminder, the GI50 is the concentration that inhibits growth by half. The low end stands for more potent growth inhibition, the high end for less potent growth inhibition.

Test [1] has as its target T1, ABL1(Q252H)-nonphosphorylated (Homo sapiens, UniProt P00519, Q252H).
T1 construct: purchased DiscoveRx (KinomeScan service)
Briefly: KinomeScan profiling. The test is classed as binding. The note with it: 1 µM CHMFL-074; read-out: % Control.

In test [2] the target is T2, ABL1(Q252H)-phosphorylated (Homo sapiens, UniProt P00519, Q252H).
T2 construct: purchased DiscoveRx (KinomeScan service)
Briefly: KinomeScan profiling. The note with it: 1 µM CHMFL-074; read-out: % Control. The test is classed as binding.

Test [3] concerns the target T3, KIT(V559D) (Homo sapiens, UniProt P10721, V559D).
T3 construct: purchased DiscoveRx (KinomeScan service)
Briefly: KinomeScan profiling. Type of test: binding. The note with it: 1 µM CHMFL-074; read-out: % Control.

The target in test [4] is T4, RET(M918T) (Homo sapiens, UniProt P07949, M918T).
T4 construct: purchased DiscoveRx (KinomeScan service)
T4 sequence (P07949 29-1114 M918T): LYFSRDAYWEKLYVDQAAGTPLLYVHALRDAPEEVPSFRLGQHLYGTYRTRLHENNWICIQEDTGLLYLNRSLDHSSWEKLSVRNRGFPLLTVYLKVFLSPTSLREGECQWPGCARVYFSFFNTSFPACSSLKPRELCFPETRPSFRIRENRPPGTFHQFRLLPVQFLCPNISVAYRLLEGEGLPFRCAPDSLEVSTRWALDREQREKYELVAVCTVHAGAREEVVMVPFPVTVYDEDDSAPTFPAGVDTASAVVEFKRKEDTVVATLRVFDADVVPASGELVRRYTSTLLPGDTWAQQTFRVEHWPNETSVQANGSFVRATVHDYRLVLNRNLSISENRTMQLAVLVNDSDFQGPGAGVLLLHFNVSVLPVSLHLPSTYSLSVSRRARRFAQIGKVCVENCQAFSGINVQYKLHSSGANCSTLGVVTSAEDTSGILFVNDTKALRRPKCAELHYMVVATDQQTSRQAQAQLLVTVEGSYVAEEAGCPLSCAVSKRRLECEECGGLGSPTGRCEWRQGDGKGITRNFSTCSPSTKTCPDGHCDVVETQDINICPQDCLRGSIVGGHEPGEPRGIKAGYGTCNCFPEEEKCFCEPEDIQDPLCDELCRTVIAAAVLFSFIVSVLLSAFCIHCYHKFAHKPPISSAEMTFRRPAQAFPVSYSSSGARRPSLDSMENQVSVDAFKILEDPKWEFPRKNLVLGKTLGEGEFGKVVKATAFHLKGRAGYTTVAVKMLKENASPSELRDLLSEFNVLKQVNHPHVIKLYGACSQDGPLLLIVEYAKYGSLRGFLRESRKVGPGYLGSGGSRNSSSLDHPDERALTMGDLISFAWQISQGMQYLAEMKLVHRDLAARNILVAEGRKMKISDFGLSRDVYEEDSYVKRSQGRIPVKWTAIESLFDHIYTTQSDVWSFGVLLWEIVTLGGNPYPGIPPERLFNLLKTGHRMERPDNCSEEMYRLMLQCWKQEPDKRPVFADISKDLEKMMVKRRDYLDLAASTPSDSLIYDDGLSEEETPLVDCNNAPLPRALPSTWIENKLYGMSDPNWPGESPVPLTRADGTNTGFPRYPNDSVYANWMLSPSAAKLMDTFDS
Briefly: KinomeScan profiling. The test is classed as binding. The note with it: 1 µM CHMFL-074; read-out: % Control.

The test system of test [5] is BCR-DDR2-BaF3. Briefly: Anti-proliferation, BaF3 isogenic cell lines. The test is classed as cell-based. The note with it: Mus musculus, BaF3, 72 h. The source says: (§1) Retroviral constructs for fusion kinases were made based on the pMSCVpuro (Clontech) backbone. For TEL fusion vectors, the first 1 kb of human TEL gene with an artificial myristoylation sequence ([…]) was cloned into pMSCVpuro retroviral vector, followed by a 3xFLAG tag sequence and a stop codon; for BCR fusion vectors, the first 2.8 kb coding region of p210 amplified from K562 cell line was used in fusion constructs. Then the kinase domain coding sequences were inserted in-frame between TEL/BCR and 3xFLAG sequences. All mutagenesis were performed using the QuikChange Site-Directed Mutagenesis Kit (Stratagene) following the manufacturer's instructions. Retrovirus was packaged in HEK293T cells by transfecting kinase-fusion MSCV vectors together with two helper plasmids, virus supernatants were harvested 48 hours after transfection and filtered before infection. Then BaF3 cells were infected with harvested virus supernatants using spinoculation protocol and stable cell lines were obtained by puromycin selection for 48 hours. A second selection in the absence of IL-3 was performed to obtain IL-3 independent cell lines that solely depend on the introduced kinase activities for cell proliferation.
(§2) A density of 1 × 10^4 to 2.5 × 10^4 cells/mL cells were mixed with various concentrations of compounds then 100 μL suspension was added to each well and incubated for 72 hours. Cell viability was determined using the CellTiter-Glo assay (Promega, USA) or CCK-8 assay (Beboy, China). Both assays were performed according to the manufacturer instructions. For CellTiter-Glo assay, luminescence was determined in a multi-label reader (Envision, PerkinElmer, USA). […] Data were normalized to control group (DMSO). GI50 were calculated using Prism 6.0 (GraphPad Software, San Diego, CA).

The subject of test [6] is P210-E255K-BaF3. Briefly: Anti-proliferation, BaF3 isogenic cell lines. Type of test: cell-based. The note with it: Mus musculus, BaF3, 72 h.
Excerpt: as §1, §2

The subject of test [7] is P210-F317I-BaF3. Briefly: Anti-proliferation, BaF3 isogenic cell lines. Type of test: cell-based. To be noted: Mus musculus, BaF3, 72 h.
Excerpt: as §1, §2

In test [8] the test system is P210-F317L-BaF3. Briefly: Anti-proliferation, BaF3 isogenic cell lines. Type of test: cell-based. To be noted: Mus musculus, BaF3, 72 h.
Excerpt: as §1, §2

Test [9] has as its system P210-M351T-BaF3. Briefly: Anti-proliferation, BaF3 isogenic cell lines. Type of test: cell-based. The note with it: Mus musculus, BaF3, 72 h.
Excerpt: as §1, §2

The test system of test [10] is P210-T315I-BaF3. Briefly: Anti-proliferation, BaF3 isogenic cell lines. Type of test: cell-based. The note with it: Mus musculus; P210-T315I-BaF3, 72 hours.
Excerpt: as §1, §2

The test system of test [11] is P210-Y253F-BaF3. Briefly: Anti-proliferation, BaF3 isogenic cell lines. The note with it: Mus musculus, BaF3, 72 h. The test is classed as cell-based.
Excerpt: as §1, §2

For test [12], the system named is Tel-BLK-BaF3. Briefly: Anti-proliferation, BaF3 isogenic cell lines. The test is classed as cell-based. To be noted: Mus musculus, BaF3, 72 h.
Excerpt: as §1, §2

The test system of test [13] is Tel-LCK-BaF3. Briefly: Anti-proliferation, BaF3 isogenic cell lines. Type of test: cell-based. To be noted: Mus musculus; Tel-LCK-BaF3, 72 hours.
Excerpt: as §1, §2

The subject of test [14] is Tel-PDGFRα-BaF3. Briefly: Anti-proliferation, BaF3 isogenic cell lines. The note with it: Mus musculus, BaF3, 72 h. Type of test: cell-based.
Excerpt: as §1, §2

In test [15] the test system is Tel-PDGFRβ-BaF3. Briefly: Anti-proliferation, BaF3 isogenic cell lines. Type of test: cell-based. To be noted: Mus musculus, BaF3, 72 h.
Excerpt: as §1, §2

Test [16] relates to Tel-RET-BaF3. Briefly: Anti-proliferation, BaF3 isogenic cell lines. Type of test: cell-based. The note with it: Mus musculus, BaF3, 72 h.
Excerpt: as §1, §2

T3 sequence (P10721 26-976 V559D): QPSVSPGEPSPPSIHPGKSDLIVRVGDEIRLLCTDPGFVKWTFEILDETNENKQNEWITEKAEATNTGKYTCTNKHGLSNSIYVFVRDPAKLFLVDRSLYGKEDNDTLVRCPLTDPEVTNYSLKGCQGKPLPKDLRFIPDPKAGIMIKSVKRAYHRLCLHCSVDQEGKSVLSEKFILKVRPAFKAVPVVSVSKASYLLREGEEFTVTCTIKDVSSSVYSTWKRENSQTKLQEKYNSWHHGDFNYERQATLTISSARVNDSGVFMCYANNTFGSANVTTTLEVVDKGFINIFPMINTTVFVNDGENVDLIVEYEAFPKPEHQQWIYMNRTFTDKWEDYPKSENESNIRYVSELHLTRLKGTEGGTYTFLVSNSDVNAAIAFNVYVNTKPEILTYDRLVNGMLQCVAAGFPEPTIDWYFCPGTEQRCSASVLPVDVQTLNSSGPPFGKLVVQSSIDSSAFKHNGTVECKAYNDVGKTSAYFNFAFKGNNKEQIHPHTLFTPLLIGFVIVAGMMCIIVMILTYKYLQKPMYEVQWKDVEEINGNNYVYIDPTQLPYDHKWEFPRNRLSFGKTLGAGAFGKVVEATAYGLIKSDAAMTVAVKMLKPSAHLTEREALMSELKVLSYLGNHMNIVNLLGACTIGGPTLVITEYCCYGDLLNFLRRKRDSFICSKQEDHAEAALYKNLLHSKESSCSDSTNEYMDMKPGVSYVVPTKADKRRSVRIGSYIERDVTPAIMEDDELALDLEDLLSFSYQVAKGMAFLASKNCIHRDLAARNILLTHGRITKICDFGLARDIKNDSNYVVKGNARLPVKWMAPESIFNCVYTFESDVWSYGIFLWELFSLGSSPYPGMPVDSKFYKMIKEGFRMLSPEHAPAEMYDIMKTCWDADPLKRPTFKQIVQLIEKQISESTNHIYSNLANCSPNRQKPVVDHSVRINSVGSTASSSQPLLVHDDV

Consider `Cc1ccc(NC(=O)c2ccc(CN3CCN(C)CC3)c(C(F)(F)F)c2)cc1OC1CCN(C(=O)c2cccnc2)CC1` [CHMFL-074], for which the remaining binding at 1 µM in [1] worked out at 0.75%; in test [2] it was 0.4%; in test [3], 0.45%; in test [4] it was 0.15%. Also, the GI50 in test [5] was 2670 nM; in [6], 774 nM; in test [7], 355 nM; in test [8], 218 nM; in test [9] it was 349 nM; in test [10] it was above 10000 nM. The GI50 came to 338 nM in test [11]; 2860 nM in [12]; 2020 nM in [13]; 95 nM in test [14]; 52 nM in test [15]; 630 nM in [16].
